Among the data in patent EP4721737A1, “USE OF PHARMACEUTICAL COMPOSITION COMPRISING COMPOUND HAVING BIS(AZANYLYLIDENE) SULFONYL STRUCTURE FOR TREATING ANEMIA-RELATED DISEASES” (Scinnohub Pharmaceutical Co., Ltd., priority 2023, dated 2024) are AC50 values, retold here.

Each structure is given as a SMILES string.

In assay [1] the target is recombinant human PKR (Homo sapiens, UniProt P30613). As to the kind of experiment: pyruvate kinase (PKR) activity test, activation of recombinant enzyme (fluorescence kit). The format is biochemical. The procedure: To test the activation effect of the compound of the present disclosure on recombinant human PKR.
3.1 A recombinant human PKR enzyme solution was prepared at a concentration of 60 ng/well (a 20 µL reaction system), and 5 µL of the solution was added into each well of a black transparent bottom 384-well plate.
3.2 Compound solutions were prepared at different concentrations, with the final concentrations of 1000/300/100 nM (containing 1% DMSO). Each 5 µL of the compound solution was added into the plate in step 3.1 and mixed well. The plate was incubated at room temperature for 10 min.
3.3 A reaction system was prepared according to the instructions of a kit (as shown in the table below), and 10 µL of the reaction system was added into each well of the 384-well plate, and mixed uniformly with the solution in step 3.2.
3.4 The 384-well plate was placed on a microplate reader to detect the fluorescence value at 540/590 nm, where the value was read every 2 minutes and the detection was conducted continuously for 1 hour.
3.5 The Slope value within the detection time was calculated, and the 1% DMSO well was used as a control well to calculate a compound activation rate. Activation rate % = (Slopeofcompoundwell/Slopeofcontrolwell) × 100% [formula]
With the log value of the compound concentration as the X axis and the percentage activation rate as the Y axis, a dose-effect curve was fitted with the log(agonist) vs. response-variable slope of the analysis software GraphPad Prism 5, and the AC50 value of the activity of each compound against PKR was obtained. Y = min + (max−min)/(1+10^(∧)((LogAC50−X)×Hillslope)). [formula]

Assay [2] deals with T1, PKR in ex vivo red blood cells from healthy individuals (Homo sapiens, UniProt P30613).
T1 construct: endogenous in cells; host or cells: human red blood cells isolated from fresh peripheral blood of healthy individuals
As to the kind of experiment: ex vivo pyruvate kinase (PKR) activity experiment, red blood cells of healthy individuals. In kind it is cell-based. Conditions: 3 hours co-cultivation. The procedure: To test the effects of the compound of the present disclosure on PKR activation in ex vivo red blood cells from healthy individuals and patients with thalassemia.
• i. 5 g of glucose, 85 mg of adenine, and 2.625 g of mannitol were weighed and added into a 50 mL centrifuge tube. 40 mL of PBS was added to dissolve (sonicate for 30 minutes until completely dissolved). The solution was filtered through a 0.22 µm filter, then added to 460 mL of sterile PBS and mixed thoroughly.
• i. Fresh human peripheral blood was collected. K2EDTA was used as the anticoagulant. 1 part anticoagulant with 9 parts blood was mixed, then centrifuged at 500 g for 10 minutes at room temperature to remove the plasma. • ii. Packed red blood cells: 1.5 volumes of PBS were added, then centrifuged at 2000 ×g for 5 minutes at room temperature. After centrifugation, the supernatant was removed. This step was repeated twice. • iii. Diluted red blood cells: 1.5 volumes of PBS were added, then resuspended and mixed thoroughly. • iv. The diluted red blood cells were slowly added to 0.5 volume of 70% isotonic solution (e.g., 7.5 mL of diluted red blood cells + 3 mL of 70% isotonic solution Percoll) and centrifuged at 4000 ×g for 20 minutes at 4°C. • v. The supernatant was removed. The red blood cells at the bottom were washed once with 4-5 mL of PBS to elute the Percoll gel, and then centrifuged at 2000 ×g for 5 minutes at room temperature. • vi. The supernatant was removed. The red blood cells were counted and then diluted in AGAM medium containing 10% FBS to a density of 2 × 10^8 cells/mL for storage at 4°C.
i. The red blood cells were seeded into a 96-well plate at a uniform density of 1 × 10^7 cells/mL, with 100 µL per well. The test compounds (dissolved in DMSO) were diluted and added to the cell culture medium, resulting in final compound concentrations of 3000, 1000, 300, 100, 10, 3, and 1 nM (with 1% DMSO). The cells and compounds were co-cultivated for 3 hours in a 37°C incubator with 5% CO2. Subsequently, the plate was centrifuged at 2000 g for 20 minutes, and the supernatant was discarded. 100 µL of red blood cell lysis buffer was added to the cell pellet, vortexed for 20 minutes, and centrifuged at 4000 g for 5 minutes. The supernatant was collected for analysis. ii. The reaction system was prepared according to the kit instructions (shown as the table below), 10 µL of the reaction system was added to each well of a 384-well plate, and 10 µL of red blood cell lysis buffer was took and mixed well (20 µL reaction system).
iii. A black, transparent-bottomed 384-well plate was placed in a microplate reader to measure fluorescence at 540/590 nm. The fluorescence was read every 2 minutes for 1 hour.
i. The Slope value was calculated over the assay time. Compound activation percentage was calculated using the 1% DMSO well as the control well. Activation percentage = (Slope of compound well / Slope of control well) × 100% ii. Dose-response curve was fit using the logarithmic compound concentration on the X-axis and the percent activation percentage on the Y-axis, the log(agonist) vs. response - variable slope function in GraphPad Prism 5 was used to determine the AC50 value for each compound on PKR activity. Y = min + (max−min)/(1+10^(∧)((LogAC50−X)×Hillslope)). [formula] The PKR agonist effects of the compound of the present disclosure on ex vivo red blood cells from healthy individuals and thalassemia patients were determined using the above assay. The AC50 values measured on ex vivo red blood cells from healthy individuals are as follows (A represents 0-100 nM, B represents 101-300 nM, and C represents 300-1000 nM): […]

recombinant human PKR, sequence (P30613 whole entry): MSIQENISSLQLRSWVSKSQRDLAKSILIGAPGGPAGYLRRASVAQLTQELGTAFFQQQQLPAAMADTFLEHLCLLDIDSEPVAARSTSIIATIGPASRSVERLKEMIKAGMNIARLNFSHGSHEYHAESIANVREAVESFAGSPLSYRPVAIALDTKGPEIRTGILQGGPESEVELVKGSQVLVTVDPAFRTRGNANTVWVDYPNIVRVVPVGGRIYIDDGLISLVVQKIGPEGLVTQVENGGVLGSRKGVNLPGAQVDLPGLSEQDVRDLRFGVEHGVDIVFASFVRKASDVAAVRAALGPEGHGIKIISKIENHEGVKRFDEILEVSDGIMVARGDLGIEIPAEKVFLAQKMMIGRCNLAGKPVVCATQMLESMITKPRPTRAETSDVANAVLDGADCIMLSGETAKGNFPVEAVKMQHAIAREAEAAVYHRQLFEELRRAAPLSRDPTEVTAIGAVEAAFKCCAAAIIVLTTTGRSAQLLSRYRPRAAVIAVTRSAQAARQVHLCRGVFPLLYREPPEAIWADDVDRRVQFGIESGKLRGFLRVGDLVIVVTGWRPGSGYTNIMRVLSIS
T1 sequence (P30613 whole entry): as above

As usually defined, the AC50 is the midpoint of the concentration-response curve, whichever way the signal moves. As to `CN1CCOc2ccc(S(=O)(=O)N3CC(=C4CN(C(=O)[C@H](CO)c5ccccc5)C4)C3)cc21` [Compound 39, (S)-3-hydroxy-1-(1'-((4-methyl-3,4-dihydro-2H-benzo[b][1,4]oxazin-6-yl)sulfonyl)-1',4'-dihydro-2H, 2'H-[3,3'-diazetidinylidene]-1(4H)-yl)-2-phenylpropan-1-one], the AC50 in assay [1] and in assay [2] was < 100 nM each time.
For `O=C(Cc1ccccc1)N1CC(=C2CN(S(=O)(=O)c3ccc4ncsc4c3)C2)C1` [Compound 47, 1-(1'-(benzo[d]thiazol-6-ylsulfonyl)-1',4'-dihydro-2H,2'H-[3,3'-diazetidinylidene]-1(4H)-yl)-2-phenyl ethan-1-one], the concentration at half-maximal activity (AC50) in assay [1] and in assay [2] was 300 to 1000 nM throughout.
Regarding `O=C(C(CO)c1ccc(F)cc1)N1CC(=C2CN(S(=O)(=O)c3ccc4ncsc4c3)C2)C1` [Compound 50, (S)-1-(1'-(benzo[d]thiazol-6-ylsulfonyl)-1',4'-dihydro-2H,2'H-[3,3'-diazetidinylidene]-1(4H)-yl)-2-(4-fluorophenyl)-3-hydroxypropan-1-one], the AC50 in assay [1] and in assay [2] was < 100 nM throughout.
Consider `O=C(c1c[nH]c2ccccc12)N1CC(=C2CN(S(=O)(=O)c3ccc4ncsc4c3)C2)C1` [Compound 52, (1'-(benzo[d]thiazol-6-ylsulfonyl)-1',4'-dihydro-2H,2'H-[3,3'-diazetidinylidene]-1(4H)-yl)(1H-indol-3-yl)methanone], for which the AC50 in assay [1] and in assay [2] was 300 to 1000 nM in each case.
Regarding `COc1ccc(C(CO)C(=O)N2CC(=C3CN(S(=O)(=O)c4ccccn4)C3)C2)cc1` (stereo not drawn) [Compound 53, 3-hydroxy-2-(4-methoxyphenyl)-1-(1'-(pyridin-2-ylsulfonyl)-1',4'-dihydro-2H,2'H-[3,3'-diazetidinylidene]-1(4H)-yl)propan-1-one], the AC50 was 300 to 1000 nM in assay [1] and 101 to 300 nM in assay [2].
As for `O=C(c1c[nH]c2ccccc12)N1CC(=C2CN(S(=O)(=O)c3ccccn3)C2)C1` [Compound 56, (1H-indol-3-yl)(1'-(pyridin-2-ylsulfonyl)-1',4'-dihydro-2H,2'H-[3,3'-diazetidinylidene]-1(4H)-yl)met hanone], the AC50 in assay [1] and in assay [2] was 300 to 1000 nM in each case.
In the case of `Cc1ccc(C(CO)C(=O)N2CC(=C3CN(S(=O)(=O)c4ccccn4)C3)C2)cc1` (stereo not drawn) [Compound 57, 3-hydroxy-1-(1'-(pyridin-2-ylsulfonyl)-1',4'-dihydro-2H,2'H-[3,3'-diazetidinylidene]-1(4H)-yl)-2-(p-tolyl)propan-1-one], the AC50 in assay [1] is 101 to 300 nM; in assay [2], < 100 nM.
`O=C(N1CC(=C2CN(S(=O)(=O)c3ccccn3)C2)C1)C1(c2ccccc2)CCOCC1` [Compound 58]: the AC50 in assay [1] and in assay [2] was 101 to 300 nM each time.
Consider `O=C(C(CO)c1cccnc1)N1CC(=C2CN(S(=O)(=O)c3ccccn3)C2)C1` (stereo not drawn) [Compound 60, 3-hydroxy-1-(1'-(pyridin-2-ylsulfonyl)-1',4'-dihydro-2H,2'H-[3,3'-diazetidinylidene]-1(4H)-yl)-2-(pyridin-3-yl)propan-1-one], for which the AC50 in assay [1] and in assay [2] was 300 to 1000 nM in each case.
Regarding `CC(C)(O)C(C(=O)N1CC(=C2CN(S(=O)(=O)c3ccccn3)C2)C1)c1ccccc1` (stereo not drawn) [Compound 62, 3-hydroxy-3-methyl-2-phenyl-1-(1'-(pyridin-2-ylsulfonyl)-1',4'-dihydro-2H,2'H-[3,3'-diazetidinylidene]-1(4H)-yl)butan-1-one], the AC50 in assay [1] and in assay [2] was 300 to 1000 nM in each case.
In the case of `O=C(C1NCc2ccccc21)N1CC(=C2CN(S(=O)(=O)c3ccc4ncsc4c3)C2)C1` (stereo not drawn) [Compound 64, (1'-(benzothiazol-6-ylsulfonyl)-1',4'-dihydro-2H,2'H-[3,3'-diazetidinylidene]-1(4H)-yl)(isoindolin-1-yl)methanone], the AC50 in assay [1] and in assay [2] was 300 to 1000 nM throughout.
Consider `COc1ccc(S(=O)(=O)N2CC(=C3CN(C(=O)[C@H](CO)c4ccccc4)C3)C2)nc1` [Compound 67, (S)-3-hydroxy-1-(1'-((5-methoxypyridin-2-yl)sulfonyl)-1',4'-dihydro-2H,2'H-[3,3'-diazetidinylidene]-1(4H)-yl)-2-phenylpropan-1-one], for which the AC50 in assay [1] and in assay [2] was < 100 nM throughout.
As to `CCOc1ccc(S(=O)(=O)N2CC(=C3CN(C(=O)[C@H](CO)c4ccccc4)C3)C2)nc1` [Compound 72, (S)-1-(1'-((5-ethoxypyridin-2-yl)sulfonyl)-1',4'-dihydro-2H,2'H-[3,3'-diazetidinylidene]-1(4H)-yl)-3-hydroxy-2-phenylpropan-1-one], the AC50 in assay [1] and in assay [2] was < 100 nM each time.
With `O=C(C(CF)c1ccccc1)N1CC(=C2CN(S(=O)(=O)c3ccccn3)C2)C1` (stereo not drawn) [Compound 73, 3-fluoro-2-phenyl-1-(1'-(pyridin-2-ylsulfonyl)-1',4'-dihydro-2H,2'H-[3,3'-diazetidinylidene]-1(4H)-yl)propan-1-one], the AC50 in assay [1] and in assay [2] was 101 to 300 nM each time.
For `O=C(C(CO)c1ccc(F)cc1F)N1CC(=C2CN(S(=O)(=O)c3ccccn3)C2)C1` (stereo not drawn) [Compound 74, 2-(2,4-difluorophenyl)-3-hydroxy-1-(1'-(pyridin-2-ylsulfonyl)-1',4'-dihydro-2H,2'H-[3,3'-diazetidinylidene]-1(4H)-yl)propan-1-one], the AC50 in assay [1] and in assay [2] was < 100 nM throughout.
In the case of `O=C(C(CO)c1ccc(C(F)(F)F)cc1)N1CC(=C2CN(S(=O)(=O)c3ccccn3)C2)C1` (stereo not drawn) [Compound 78, 3-hydroxy-1-(1'-(pyridin-2-ylsulfonyl)-1',4'-dihydro-2H,2'H-[3,3'-diazetidinylidene]-1(4H)-yl)-2-(4-(trifluoromethyl)phenyl)propan-1-one], the AC50 in assay [1] and in assay [2] was 300 to 1000 nM each time.
Take `O=C(C(CO)c1ccc2c(c1)NCCO2)N1CC(=C2CN(S(=O)(=O)c3ccccn3)C2)C1` (stereo not drawn) [Compound 79, 2-(3,4-dihydro-2H-benzo[b][1,4]oxazin-6-yl)-3-hydroxy-1-(1'-(pyridin-2-ylsulfonyl)-1',4'-dihydro-2 H,2'H-[3,3'-diazetidinylidene]-1(4H)-yl)propan-1-one]: the AC50 was < 100 nM in assay [1] and 101 to 300 nM in assay [2].
With `O=C([C@H](CO)c1ccccc1)N1CC(=C2CN(S(=O)(=O)c3ccc(OC(F)F)cn3)C2)C1` [Compound 80, (S)-1-(1'-((5-(difluoromethoxy)pyridin-2-yl)sulfonyl)-1',4'-dihydro-2H,2'H-[3,3'-diazetidinylidene]-1 (4H)-yl)-3-hydroxy-2-phenylpropan-1-one], the AC50 in assay [1] and in assay [2] was < 100 nM throughout.
